Legend:
FIV-p24 antigen [1] = experiment: Vaginal secretion SIgA antibody titers (ELISA) after vaccination of cats; format: in vivo, feline immunodeficiency virus (FIV); conditions: for SIgA Anti-FIV-p24: vaginal, lowest dilution Undilute
Description: (§1) Animals: Eleven (11) female outbred cats>24 weeks old that were free of FIV, feline leukemia virus (FeLV) and feline infectious peritonitis virus were employed. The animals were restrained for the application of test articles to mucous membranes and collection of blood and mucosal secretions. Sedation, if necessary, was induced by subcutaneous administration of ketamine hydrochloride (22 mg/kg) and acepromazine maleate (0.1 mg/kg). Euthanasia was accomplished with a lethal overdose of barbiturates. All activities were approved by the Institutional Animal Care and Use Committee and supervised by veterinary staff.
(§2) Vaccine Preparation: Fel-O-Vax FIV (Fort Dodge Animal Health, Fort Dodge, Iowa) and A(1-7) was combined in a constant volume of 2% hydroxyethyl cellulose (2% HEC). The range of concentrations of A(1-7) ranged from 0 to 10 mg/mL with a constant 0.33 mL of Fel-O-Vax FIV suspended in each mL of the gel applied for vaccination purposes. Two control animals received intramuscular Fel-O-Vax FIV at baseline, week 3 and week 5. One control animal had mucosal vaccination with Fel-O-Vax alone suspended in the 2% HEC without A(1-7) and one control animal received intramuscular Fel-O-Vax FIV with 0.3 mg/kg of A(1-7) at baseline, week 3 and week 5.
(§3) Delivery of angiotensin(1-7) and FIV vaccine to mucosal surfaces: 2% HEC, a viscous gel, was used as the vehicle for the topical delivery of angiotensin(1-7) and FIV vaccine. The topical vaccine was applied to the mucosal surface weekly for 6 consecutive weeks. 1.0 mL was applied to the muzzle for oral mucosal vaccination and 1.0 mL and 0.2 mL was instilled in the rectal and vaginal vaults, respectively for mucosal vaccination at these sites.
(§4) Measurement of Local Immune Response: The Weck-Cel Surgical Spear (Windsor Biomedical, Newton, N.H.) was used to obtain secretions. Once inserted, the sponge is allowed to remain in place for 5 minutes. The secretions were extracted by centrifugation with 300 μL of a buffer solution. The buffer solution is prepared by mixing 50 μL of 100× protease inhibitor cocktail and 250 μL of 10% Igepal (Sigma, St Louis, Mo., U.S.A.) with 4.7 ml of phosphate-buffered saline (PBS) containing 0.25% bovine serum albumin (BSA, Fraction V; Sigma). The 100× protease inhibitor cocktail contains 100 μg/mL aprotinin, 500 μg/mL leupeptin, 100 μg/mL bestatin (all Sigma), and 50 μg/mL 4-(2-Aminoethyl)-benzenesulfonyl fluoride hydrochloride (Roche Applied Sciences, U.S.A.) in phosphate buffered saline.
(§5) The local immune response in mucosal secretions was evaluated against the homologous FIV-p24 antigen (Cell Biolabs, Inc, San Diego, Calif.) or the heterologous HIV-gp120 antigen (ImmunoDiagnostics, Inc, Woburn, Mass.). Plates were prepared with 50 ng/mL FIV-p24 antigen or with 500 ng/mL HIV-gp120 antigen (Bachem Americans, Inc, Torrance, Calif.) incubated over night at 4° C., washed and the target sample added and incubated overnight again at 4° C. The plates were washed and the indicator goat anti-feline IgG (Accurate Chemical & Scientific Corp., Westbury, N.Y., working titer 1:10,000) or goat anti-feline IgA (Accurate Chemical & Scientific Corp., Westbury, N.Y., working titer 1:1,000) added and incubated for 24 hours at 4° C. Following a final wash, substrate solution was added. The stop solution was added after 15 minutes for the IgG reaction and after 30 minutes for the IgA reaction. Plates were read at 450 nm.

HIV-gp120 antigen [2] = experiment: Rectal secretion SIgA antibody titers (ELISA) after vaccination of cats; format: in vivo, human immunodeficiency virus (HIV); conditions: parenteral vaccination or topical application of Fel-O-Vax FIV with A(1-7)
Description: as §1
(§6) Vaccine Preparation: Fel-O-Vax FIV (Fort Dodge Animal Health, Fort Dodge, Iowa) and A(1-7) was combined in a constant volume of 2% hydroxyethyl cellulose (2% HEC). The range of concentrations of A(1-7) ranged from 0 to 10 mg/mL with a constant 0.33 mL of Fel-O-Vax FIV suspended in each mL of the gel applied for vaccination purposes. Two control animals received intramuscular Fel-O-Vax FIV at baseline, week 3 and week 5. […]
(§7) The local immune response in mucosal secretions was evaluated against the homologous FIV-p24 antigen (Cell Biolabs, Inc, San Diego, Calif.) or the heterologous HIV-gp120 antigen (ImmunoDiagnostics, Inc, Woburn, Mass.). […] Plates were read at 450 nm.

FIV-p24 antigen [3] = experiment: as above; format: in vivo, feline immunodeficiency virus (FIV); conditions: for SIgA Anti-FIV-p24: rectal, lowest dilution Undilute
Description: as §1, §2, §3, §4, §5

HIV-gp120 antigen [4] = experiment: Vaginal secretion IgG antibody titers (ELISA) after vaccination of cats; format: in vivo, human immunodeficiency virus (HIV); conditions: for IgG Anti-HIV gp120: vaginal, Week 8, lowest dilution 1:4, elution factor 300-fold
Description: as §1, §2, §3, §4, §5

[5] = test system: mucosal SIgA antibody production; experiment: Local (mucosal) secretory IgA immune response after vaccination of cats, general statements; format: in vivo
Description: as §1, §6, §7

FIV-p24 = experiment: Oral secretion IgG antibody titers (ELISA) after vaccination of cats; format: in vivo, feline immunodeficiency virus (FIV); conditions: Week 8, lowest dilution 1:4, elution factor 4-fold
Description: as §1, §2, §3, §4, §7

[6] = IM Fel-O-Vax FIV + 0.3 mg/kg A(1-7), Week 4
[7] = IM Fel-O-Vax FIV + 0.3 mg/kg A(1-7), Week 6
[8] = topical Fel-O-Vax FIV + 0.1 A(1-7) in 2% HEC, Week 2
[9] = topical Fel-O-Vax FIV + 0.2 A(1-7) in 2% HEC, Week 2
[10] = topical Fel-O-Vax FIV + 0.2 A(1-7) in 2% HEC, Week 8
[11] = topical Fel-O-Vax FIV + 0.3 A(1-7) in 2% HEC, Week 6
[12] = topical Fel-O-Vax FIV + 0.3 A(1-7) in 2% HEC, Week 8
[13] = topical Fel-O-Vax FIV + 5.0 A(1-7) in 2% HEC, Week 4
[14] = topical Fel-O-Vax FIV + 5.0 A(1-7) in 2% HEC, Week 6
[15] = topical Fel-O-Vax FIV + 5.0 A(1-7) in 2% HEC, Week 8
[16] = topical Fel-O-Vax FIV + 7.5 A(1-7) in 2% HEC, Week 2
[17] = topical Fel-O-Vax FIV + 7.5 A(1-7) in 2% HEC, Week 4
[18] = topical Fel-O-Vax FIV + 7.5 A(1-7) in 2% HEC, Week 8
[19] = topical Fel-O-Vax FIV + 10.0 A(1-7) in 2% HEC, Week 2
[20] = topical Fel-O-Vax FIV + 10.0 A(1-7) in 2% HEC, Week 6
[21] = topical Fel-O-Vax FIV + 10.0 A(1-7) in 2% HEC, Week 8
[22] = topical Fel-O-Vax FIV + 0.1 A(1-7) in 2% HEC
[23] = topical Fel-O-Vax FIV + 10.0 A(1-7) in 2% HEC

Substance: Asp-Arg-Val-Tyr-Ile-His-Pro (DRVYIHP) [A(1-7)]
- SIgA against FIV-p24 in vaginal secretions (FIV-p24 antigen [1]; Topical application of FIV antigen with A(1-7)): only low levels
- SIgA Anti-FIV-p24 (FIV-p24 antigen [1]; IM Fel-O-Vax FIV + 0.3 mg/kg A(1-7), Week 2): Negative
- SIgA Anti-FIV-p24 (FIV-p24 antigen [1]; [6]): Undilute
- SIgA Anti-FIV-p24 (FIV-p24 antigen [1]; [7]): Undilute
- SIgA Anti-FIV-p24 (FIV-p24 antigen [1]; [8]): Undilute
- SIgA Anti-FIV-p24 (FIV-p24 antigen [1]; topical Fel-O-Vax FIV + 0.1 A(1-7) in 2% HEC, Week 4): Undilute
- SIgA Anti-FIV-p24 (FIV-p24 antigen [1]; [9]): Undilute
- SIgA Anti-FIV-p24 (FIV-p24 antigen [1]; [10]): Undilute
- SIgA Anti-FIV-p24 (FIV-p24 antigen [1]; [11]): Undilute
- SIgA Anti-FIV-p24 (FIV-p24 antigen [1]; [12]): Negative
- SIgA Anti-FIV-p24 (FIV-p24 antigen [1]; topical Fel-O-Vax FIV + 5.0 A(1-7) in 2% HEC, Week 2): Negative
- SIgA Anti-FIV-p24 (FIV-p24 antigen [1]; [13]): Negative
- SIgA Anti-FIV-p24 (FIV-p24 antigen [1]; [14]): Negative
- SIgA Anti-FIV-p24 (FIV-p24 antigen [1]; [15]): Negative
- SIgA Anti-FIV-p24 (FIV-p24 antigen [1]; [16]): Negative
- SIgA Anti-FIV-p24 (FIV-p24 antigen [1]; [17]): Negative
- SIgA Anti-FIV-p24 (FIV-p24 antigen [1]; topical Fel-O-Vax FIV + 7.5 A(1-7) in 2% HEC, Week 6): Negative
- SIgA Anti-FIV-p24 (FIV-p24 antigen [1]; [18]): Negative
- SIgA Anti-FIV-p24 (FIV-p24 antigen [1]; [19]): Negative
- SIgA Anti-FIV-p24 (FIV-p24 antigen [1]; [20]): Negative
- SIgA Anti-FIV-p24 (FIV-p24 antigen [1]; [21]): Negative
- SIgA anti-HIV-gp120 (rectal, Table 4) (HIV-gp120 antigen [2]): High levels
- SIgA-anti-FIV-p24 (rectal, Table 4) (FIV-p24 antigen [3]; both methods of vaccination (parenteral or topical Fel-O-Vax FIV with A(1-7))): Low levels
- mucosal anti-FIV antibodies in the rectum (FIV-p24 antigen [3]; injection of A(1-7) with FIV antigens): increased
- SIgA Anti-FIV-p24 (FIV-p24 antigen [3]; [6]): Undilute
- SIgA Anti-FIV-p24 (FIV-p24 antigen [3]; [7]): Negative
- SIgA Anti-FIV-p24 (FIV-p24 antigen [3]; IM Fel-O-Vax FIV + 0.3 mg/kg A(1-7), Week 8): Undilute
- SIgA Anti-FIV-p24 (FIV-p24 antigen [3]; [8]): Undilute
- SIgA Anti-FIV-p24 (FIV-p24 antigen [3]; topical Fel-O-Vax FIV + 0.1 A(1-7) in 2% HEC, Week 6): Undilute
- SIgA Anti-FIV-p24 (FIV-p24 antigen [3]; topical Fel-O-Vax FIV + 0.1 A(1-7) in 2% HEC, Week 8): Undilute
- SIgA Anti-FIV-p24 (FIV-p24 antigen [3]; [9]): Undilute
- SIgA Anti-FIV-p24 (FIV-p24 antigen [3]; topical Fel-O-Vax FIV + 0.2 A(1-7) in 2% HEC, Week 6): Negative
- SIgA Anti-FIV-p24 (FIV-p24 antigen [3]; [10]): Negative
- SIgA Anti-FIV-p24 (FIV-p24 antigen [3]; topical Fel-O-Vax FIV + 0.3 A(1-7) in 2% HEC, Week 2): Undilute
- SIgA Anti-FIV-p24 (FIV-p24 antigen [3]; topical Fel-O-Vax FIV + 0.3 A(1-7) in 2% HEC, Week 4): Undilute
- SIgA Anti-FIV-p24 (FIV-p24 antigen [3]; [11]): Negative
- SIgA Anti-FIV-p24 (FIV-p24 antigen [3]; [12]): Negative
- SIgA Anti-FIV-p24 (FIV-p24 antigen [3]; topical Fel-O-Vax FIV + 0.4 A(1-7) in 2% HEC, Week 4): Undilute
- SIgA Anti-FIV-p24 (FIV-p24 antigen [3]; topical Fel-O-Vax FIV + 0.4 A(1-7) in 2% HEC, Week 6): Undilute
- SIgA Anti-FIV-p24 (FIV-p24 antigen [3]; [13]): Negative
- SIgA Anti-FIV-p24 (FIV-p24 antigen [3]; [14]): Negative
- SIgA Anti-FIV-p24 (FIV-p24 antigen [3]; [15]): Negative
- SIgA Anti-FIV-p24 (FIV-p24 antigen [3]; [16]): Negative
- SIgA Anti-FIV-p24 (FIV-p24 antigen [3]; [17]): Negative
- SIgA Anti-FIV-p24 (FIV-p24 antigen [3]; [18]): Negative
- SIgA Anti-FIV-p24 (FIV-p24 antigen [3]; [19]): Negative
- SIgA Anti-FIV-p24 (FIV-p24 antigen [3]; topical Fel-O-Vax FIV + 10.0 A(1-7) in 2% HEC, Week 4): Negative
- SIgA Anti-FIV-p24 (FIV-p24 antigen [3]; [20]): Negative
- SIgA Anti-FIV-p24 (FIV-p24 antigen [3]; [21]): Negative
- IgG antibody induction in vaginal secretions (HIV-gp120 antigen [4]; topical, higher dose levels of A(1-7)): declined
- IgG anti-HIV-gp120 antibodies in vaginal secretions (HIV-gp120 antigen [4]; topical, lower dose levels of A(1-7)): also elicited
- IgG Anti-HIV gp120 (HIV-gp120 antigen [4]; [22]): Negative
- IgG Anti-HIV gp120 (HIV-gp120 antigen [4]; topical Fel-O-Vax FIV + 5.0 A(1-7) in 2% HEC): Negative
- IgG Anti-HIV gp120 (HIV-gp120 antigen [4]; topical Fel-O-Vax FIV + 7.5 A(1-7) in 2% HEC): Negative
- IgG Anti-HIV gp120 (HIV-gp120 antigen [4]; [23]): Negative
- local secretory IgA immune responses ([5]; angiotensin (1-7) co-administered with killed FIV (Fel-O-Vax FIV) vaccine): dramatic increase
- induction of SIgA antibody production at the mucosal surface ([5]; following A(1-7)+FIV immunization, two month period of observation): sustained
- IgG anti-FIV-p24 (FIV-p24; [22]): Negative
- IgG anti-FIV-p24 (FIV-p24; topical Fel-O-Vax FIV + 0.2 A(1-7) in 2% HEC): Negative
- IgG anti-FIV-p24 (FIV-p24; topical Fel-O-Vax FIV + 0.3 A(1-7) in 2% HEC): Negative
- IgG anti-FIV-p24 (FIV-p24; [23]): Negative
